Assay results from ChEMBL document CHEMBL5725732, “Aglaroxin C and derivatives as HCV entry inhibitors” (2018).

Experiment: Cell Surface Biotinylation Assay: Huh7.5.1 cells from four 150 mm plates were treated with DMSO, Roc-A (20 nM), or infected by HCVcc. 48 h post-transfection, cells were washed three times with ice-cold PBS and resuspended in PBS at a density of 25×10^6 cells/ml. Freshly prepared Sulfo-NHS-SS-biotin (Pierce) was added to the cells (final concentration […]) and allowed to incubate at 4° C. for 30 min. Cells were then washed three times with ice-cold PBS. 25 mM Tris (pH 8.0) was added in the initial wash to quench any non-reacted biotin reagent. Following cell lysis in RIPA buffer (50 mM Tris-HCl [pH 7.5], 150 mM NaCl, 1% NP-40, 0.25% sodium deoxycholate, 1 mM EDTA, 2 mM Na3VO4 and Pierce protease inhibitor cocktail), lysates were cleared by centrifugation at 13,000×g for 15 min at 4° C. The cleared lysates were used for immunoprecipitation using a 1:1 mixture of Streptavidin beads (Pierce). Beads were washed three times with RIPA buffer, and bound proteins were eluted by boiling the samples in SDS-PAGE sample buffer and then resolved on 9% SDS-PAGE. Biotinylated proteins were detected by anti-PHB1 and anti-PHB2 antibodies.
Conditions: Huh-7.5.1

COc1ccc([C@@]23Oc4cc(OC)cc(OC)c4[C@]2(O)c2nc4n(c(=O)c2[C@H]3c2ccccc2)CCC4)cc1 (racemic)
EC50: 100 nM
